According to US20220125093A1, “NUTRITIONAL SUPPLEMENTS INCLUDING MEAL REPLACEMENTS AND RELATED METHODS” (Ohio State Innovation Foundation, priority 2012, published 2022):

Key:
[1] = single dose of zinc, healthy young adult women, blood at 0, 1, 2, 3 and 4 hours
Excerpt: Zinc glycinate has not been studied at all in people who have had bariatric surgery. Furthermore, in published studies on any types of people, zinc glycinate has not been compared much to other forms of zinc. Thus, an unpublished comparative study was done in healthy young adult women that compared zinc glycinate to two other forms of zinc. The study utilized an indirect approach of absorption. In this approach, a single dose of zinc was given to young adult women; blood was taken at 0, 1, 2, 3, and 4 hours. Both plasma and red blood cells (erythrocytes) were analyzed for zinc and for each, an area under the curve graph was calculated for zinc content versus time.

[2] = Iron status as ferritin/CRP ratio after bariatric surgery; assay type: in vivo, human; conditions: added to meal replacement product, same amount of iron for each group
Excerpt: Design. Young adult females who were about to have bariatric surgery were recruited. Blood and urine samples were taken before surgery and 6 weeks later. People were divided into two groups. One group drank 2 servings per day of the new product related to this patent (N=12) for 6 weeks. The other group drank 2 servings of a current meal replacement product and also took other supplements including sublingual vitamin B12. The new product had the B12 put right in the meal replacement product. The vitamin is put in the product at a daily dose that is very high relative to normal recommendations, and high relative to what was used for injections or sublingual administration. Also, a coenzyme form of the vitamin was used in the meal replacement product.
Iron status was measured as ferritin/CRP ratios (ferritin reflects iron status but can also be influenced by inflammation; CRP only reflects inflammation).

| Molecule | erythrocyte (red blood cell) zinc area under the curve [1] | plasma zinc area under the curve [1] | iron status (ferritin/CRP ratios) [2] |
| --- | --- | --- | --- |
| NCC(=O)[O-].NCC(=O)[O-].[Zn+2] [Zinc glycinate, zinc glycinate] | outperformed zinc oxide and gluconate | outperformed zinc oxide and gluconate |  |
| Iron Glycinate Chelate |  |  | improved iron status to about the same degree as a conventional bariatric meal replacement product+iron lozenges |
